Experimental data from patent publication US20220304999A1, “REBAMIPIDE FOR USE IN PREVENTION AND/OR TREATMENT OF ARTERIAL STIFFNESS” (SQUARE POWER LTD., priority 2019, published 2022).

Test: Carotid to femoral pulse wave velocity (cfPWV) study in patients suffering from arterial stiffness
Type: in vivo, human
Text: Aging of cardiovascular system is associated with worsening of arterial cushion function resulting in higher pulse pressure (systolic-diastolic amplitude). Pulse wave velocity (PWV), i.e. velocity at which the blood pressure pulse propagates through the circulatory system, is the gold standard method for arterial stiffness quantification. It can be readily measured non-invasively in humans, is highly reproducible, and predicts future cardiovascular events and all-cause mortality independent of conventional cardiovascular risk factors.
Pulse wave travels along the arteries at a velocity rate, which varies according to wall elasticity: the less elastic the wall, the higher the velocity of PW propagation. PWV measures the time of travel of the pressure wave over a known distance and is calculated as the distance between the two positions of the pulse transducer divided by the time delay measured between pressure upstroke at each site.
To study the effect of rebamipide on arteries, a small study on patients suffering from arterial stiffness was performed. […] Carotid to femoral PWV (cfPWV) was measured in both groups at 0, 3, 6, 9 and 12 months.

O=C(NC(Cc1cc(=O)[nH]c2ccccc12)C(=O)O)c1ccc(Cl)cc1 (centres unmarked) [rebamipide, 2-[(4-chlorobenzoyl)amino]-3-(2-oxo-1H-quinolin-4-yl)propanoic acid]
arterial stiffness (carotid to femoral PWV) (patients with PWV above normal for age, no atherosclerosis or hyperlipidemia, rebamipide 200 mg three times a day for 12 months vs placebo, cfPWV at 0, 3, 6, 9, 12 months): gradually decreasing | difference in arterial stiffness between rebamipide and placebo groups (rebamipide 200 mg three times a day vs placebo, 12 months): reached statistical significance
